Experimental data taken from ChEMBL document CHEMBL1201862, “PubChem BioAssay data set” (2004).
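Interpolation was linear, between the two tested concentrations surrounding the appropriate level; five concentrations were tested over 48 hours in 96-well plates. GI50 = concentration required for 50% inhibition of growth.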 Activity calls are given as the source filed them. No stated cut-off is given here; in the data, active = GI50 up to about 1.1 µM and inactive = higher.

How the values were obtained:
Assay in all cases: DTP human tumour cell line panel, 48 h
786-0 = test system: 786-0
A549 = test system: A549
ACHN = test system: ACHN
BT-549 = test system: BT-549
CAKI-1 = test system: CAKI-1
CCRF-CEM = test system: CCRF-CEM
COLO 205 = test system: COLO 205
DU-145 = test system: DU-145
EKVX = test system: EKVX
HCC 2998 = test system: HCC 2998
HCT-116 = test system: HCT-116
HCT-15 = test system: HCT-15
HL-60 = test system: HL-60
HOP-62 = test system: HOP-62
HOP-92 = test system: HOP-92
HT-29 = test system: HT-29
Hs-578T = test system: Hs-578T
IGROV-1 = test system: IGROV-1
K562 = test system: K562
KM12 = test system: KM12
LOX IMVI = test system: LOX IMVI
M14 = test system: M14
MCF7 = test system: MCF7
MDA-MB-231 = test system: MDA-MB-231
MDA-MB-435 = test system: MDA-MB-435
MDA-N = test system: MDA-N
MOLT-4 = test system: MOLT-4
Malme-3M = test system: Malme-3M
NCI-H226 = test system: NCI-H226
NCI-H23 = test system: NCI-H23
NCI-H460 = test system: NCI-H460
NCI-H522 = test system: NCI-H522
NCI/ADR-RES = test system: NCI/ADR-RES
OVCAR-3 = test system: OVCAR-3
OVCAR-4 = test system: OVCAR-4
OVCAR-8 = test system: OVCAR-8
PC-3 = test system: PC-3
RPMI-8226 = test system: RPMI-8226
RXF 393 = test system: RXF 393
SF-268 = test system: SF-268
SF-295 = test system: SF-295
SF-539 = test system: SF-539
SK-MEL-28 = test system: SK-MEL-28
SK-MEL-2 = test system: SK-MEL-2
SK-MEL-5 = test system: SK-MEL-5
SK-OV-3 = test system: SK-OV-3
SN12C = test system: SN12C
SNB-19 = test system: SNB-19
SNB-75 = test system: SNB-75
SR = test system: SR
SW-620 = test system: SW-620
T47D = test system: T47D
TK-10 = test system: TK-10
U-251 = test system: U-251
UACC-257 = test system: UACC-257
UACC-62 = test system: UACC-62
UO-31 = test system: UO-31
OVCAR-5 = test system: OVCAR-5

Which GI50 (786-0) does the source give for O=C(O)c1ccc(C2=Nc3cccc4cccc(c34)N2)cc1 here?
Its GI50 is > 100 µM (inactive).

And the GI50 (A549)?
Its GI50 is > 100 µM (inactive).

What about the GI50 (ACHN) of the same compound?
The GI50 was > 100 µM (inactive).

What about the GI50 (BT-549) of the same compound?
Its GI50 is > 100 µM (inactive).

And the GI50 (CAKI-1)?
Its GI50 is > 100 µM (inactive).

What about the GI50 (CCRF-CEM) of the same compound?
Its GI50 is 24.7 µM (inactive).

And the GI50 (COLO 205)?
The GI50 was > 100 µM (inactive).

And the GI50 (DU-145)?
The GI50 was > 100 µM (inactive).

What about the GI50 (EKVX) of the same compound?
The GI50 was > 100 µM (inactive).

What about the GI50 (HCC 2998) of the same compound?
Its GI50 is > 100 µM (inactive).

And the GI50 (HCT-116)?
Its GI50 is > 100 µM (inactive).

What about the GI50 (HCT-15) of the same compound?
Its GI50 is over 100 µM.

And the GI50 (HL-60)?
Its GI50 is 19.6 µM (inactive).

And the GI50 (HOP-62)?
The GI50 was > 100 µM (inactive).

What about the GI50 (HOP-92) of the same compound?
Its GI50 is 45.6 µM (inactive).

What about the GI50 (HT-29) of the same compound?
The GI50 was > 100 µM (inactive).

And the GI50 (Hs-578T)?
The GI50 was > 100 µM (inactive).

And the GI50 (IGROV-1)?
Its GI50 is > 100 µM (inactive).

What about the GI50 (K562) of the same compound?
The GI50 was > 100 µM (inactive).

And the GI50 (KM12)?
The GI50 was > 100 µM (inactive).

And the GI50 (LOX IMVI)?
The GI50 was > 100 µM (inactive).

What about the GI50 (M14) of the same compound?
Its GI50 is > 100 µM (inactive).

And the GI50 (MCF7)?
The GI50 was > 100 µM (inactive).

What about the GI50 (MDA-MB-231) of the same compound?
Its GI50 is > 100 µM (inactive).

What about the GI50 (MDA-MB-435) of the same compound?
Its GI50 is > 100 µM (inactive).

What about the GI50 (MDA-N) of the same compound?
The GI50 was > 100 µM (inactive).

What about the GI50 (MOLT-4) of the same compound?
The GI50 was 25.4 µM (inactive).

What about the GI50 (Malme-3M) of the same compound?
Its GI50 is > 100 µM (inactive).

What about the GI50 (NCI-H226) of the same compound?
Its GI50 is > 100 µM (inactive).

And the GI50 (NCI-H23)?
The GI50 was > 100 µM (inactive).

And the GI50 (NCI-H460)?
The GI50 was > 100 µM (inactive).

What about the GI50 (NCI-H522) of the same compound?
Its GI50 is 82.6 µM (inactive).

What about the GI50 (NCI/ADR-RES) of the same compound?
The GI50 was > 100 µM (inactive).

What about the GI50 (OVCAR-3) of the same compound?
The GI50 was > 100 µM (inactive).

What about the GI50 (OVCAR-4) of the same compound?
The GI50 was > 100 µM (inactive).

What about the GI50 (OVCAR-8) of the same compound?
Its GI50 is > 100 µM (inactive).

What about the GI50 (PC-3) of the same compound?
The GI50 was > 100 µM (inactive).

And the GI50 (RPMI-8226)?
Its GI50 is > 100 µM (inactive).

What about the GI50 (RXF 393) of the same compound?
Its GI50 is > 100 µM (inactive).

What about the GI50 (SF-268) of the same compound?
Its GI50 is > 100 µM (inactive).

And the GI50 (SF-295)?
The GI50 was > 100 µM (inactive).

And the GI50 (SF-539)?
Its GI50 is > 100 µM (inactive).

What about the GI50 (SK-MEL-28) of the same compound?
Its GI50 is > 100 µM (inactive).

And the GI50 (SK-MEL-2)?
Its GI50 is > 100 µM (inactive).

And the GI50 (SK-MEL-5)?
Its GI50 is > 100 µM (inactive).

What about the GI50 (SK-OV-3) of the same compound?
The GI50 was > 100 µM (inactive).

And the GI50 (SN12C)?
Its GI50 is > 100 µM (inactive).

And the GI50 (SNB-19)?
The GI50 was > 100 µM (inactive).

And the GI50 (SNB-75)?
The GI50 was > 100 µM (inactive).

And the GI50 (SR)?
The GI50 was 30.6 µM (inactive).

What about the GI50 (SW-620) of the same compound?
Its GI50 is > 100 µM (inactive).

And the GI50 (T47D)?
The GI50 was 57.9 µM (inactive).

What about the GI50 (TK-10) of the same compound?
The GI50 was > 100 µM (inactive).

And the GI50 (U-251)?
The GI50 was > 100 µM (inactive).

And the GI50 (UACC-257)?
Its GI50 is > 100 µM (inactive).

And the GI50 (UACC-62)?
The GI50 was > 100 µM (inactive).

And the GI50 (UO-31)?
Its GI50 is > 100 µM (inactive).

With Clc1ccc(OCC2NC3CCC2CC3)cn1 (stereo not given) as the compound, how does the GI50 (786-0) read?
The GI50 was 18.3 µM (inactive).

And the GI50 (A549)?
Its GI50 is 37.9 µM (inactive).

And the GI50 (ACHN)?
The GI50 was 33.3 µM (inactive).

What about the GI50 (BT-549) of the same compound?
The GI50 was 68.7 µM (inactive).

What about the GI50 (CAKI-1) of the same compound?
The GI50 was 42.5 µM (inactive).

And the GI50 (CCRF-CEM)?
Its GI50 is 25 µM (inactive).

What about the GI50 (COLO 205) of the same compound?
Its GI50 is 17.1 µM (inactive).

And the GI50 (DU-145)?
Its GI50 is 59.3 µM (inactive).

What about the GI50 (EKVX) of the same compound?
Its GI50 is 26.3 µM (inactive).

What about the GI50 (HCC 2998) of the same compound?
The GI50 was 16.6 µM (inactive).

And the GI50 (HCT-116)?
The GI50 was 20.7 µM (inactive).

And the GI50 (HCT-15)?
Its GI50 is 20.7 µM.

What about the GI50 (HL-60) of the same compound?
The GI50 was 24.4 µM (inactive).

What about the GI50 (HOP-62) of the same compound?
The GI50 was 22.8 µM (inactive).

What about the GI50 (HOP-92) of the same compound?
Its GI50 is 35.4 µM (inactive).

And the GI50 (HT-29)?
The GI50 was 17.9 µM (inactive).

What about the GI50 (Hs-578T) of the same compound?
The GI50 was 57.1 µM (inactive).

What about the GI50 (IGROV-1) of the same compound?
Its GI50 is 38.2 µM (inactive).

What about the GI50 (K562) of the same compound?
The GI50 was 17.5 µM (inactive).

And the GI50 (KM12)?
Its GI50 is 18.4 µM (inactive).

And the GI50 (LOX IMVI)?
The GI50 was 18.4 µM (inactive).

What about the GI50 (M14) of the same compound?
Its GI50 is 21.2 µM (inactive).

What about the GI50 (MCF7) of the same compound?
The GI50 was 17.9 µM (inactive).

What about the GI50 (MDA-MB-231) of the same compound?
Its GI50 is 19.1 µM (inactive).

And the GI50 (MDA-MB-435)?
The GI50 was 20.4 µM (inactive).

What about the GI50 (MDA-N) of the same compound?
The GI50 was 16.8 µM (inactive).

What about the GI50 (MOLT-4) of the same compound?
Its GI50 is 17.2 µM (inactive).

What about the GI50 (Malme-3M) of the same compound?
The GI50 was 19.5 µM (inactive).

What about the GI50 (NCI-H226) of the same compound?
Its GI50 is > 100 µM (inactive).

And the GI50 (NCI-H23)?
The GI50 was 49.2 µM (inactive).

And the GI50 (NCI-H460)?
Its GI50 is 21.3 µM (inactive).

And the GI50 (NCI-H522)?
The GI50 was 19 µM (inactive).

What about the GI50 (NCI/ADR-RES) of the same compound?
Its GI50 is 50.1 µM (inactive).

And the GI50 (OVCAR-3)?
The GI50 was 60.4 µM (inactive).

What about the GI50 (OVCAR-4) of the same compound?
The GI50 was 37.9 µM (inactive).

What about the GI50 (OVCAR-5) of the same compound?
The GI50 was 52 µM (inactive).

What about the GI50 (OVCAR-8) of the same compound?
The GI50 was 31.5 µM (inactive).

And the GI50 (PC-3)?
Its GI50 is 25.6 µM (inactive).

And the GI50 (RPMI-8226)?
The GI50 was 13.4 µM (inactive).

What about the GI50 (RXF 393) of the same compound?
Its GI50 is 36.9 µM (inactive).

What about the GI50 (SF-268) of the same compound?
Its GI50 is 51.6 µM (inactive).

What about the GI50 (SF-295) of the same compound?
Its GI50 is 19.8 µM (inactive).

What about the GI50 (SF-539) of the same compound?
The GI50 was 20.7 µM (inactive).

And the GI50 (SK-MEL-28)?
The GI50 was 37.8 µM (inactive).

What about the GI50 (SK-MEL-2) of the same compound?
The GI50 was 18 µM (inactive).

What about the GI50 (SK-MEL-5) of the same compound?
The GI50 was 17.6 µM (inactive).

And the GI50 (SK-OV-3)?
The GI50 was 52.7 µM (inactive).

What about the GI50 (SN12C) of the same compound?
The GI50 was 28.4 µM (inactive).

And the GI50 (SNB-19)?
The GI50 was 34.4 µM (inactive).

What about the GI50 (SNB-75) of the same compound?
The GI50 was 61 µM (inactive).

What about the GI50 (SR) of the same compound?
The GI50 was 18.7 µM (inactive).

And the GI50 (SW-620)?
The GI50 was 22.7 µM (inactive).

And the GI50 (T47D)?
Its GI50 is 29.8 µM (inactive).

And the GI50 (TK-10)?
The GI50 was 42.3 µM (inactive).

What about the GI50 (U-251) of the same compound?
Its GI50 is 16.3 µM (inactive).

And the GI50 (UACC-257)?
Its GI50 is 17.8 µM (inactive).

And the GI50 (UACC-62)?
The GI50 was 17.7 µM (inactive).

And the GI50 (UO-31)?
Its GI50 is 2.45 µM (inactive).
